Test results published in patent publication US20250026752A1, “POSITIVE ALLOSTERIC MODULATORS OF THE MUSCARINIC ACETYLCHOLINE RECEPTOR M4” (Vanderbilt University, priority 2021, published 2025).

Molecular target: T1, human mAChR M4 (Homo sapiens, UniProt P08173)
T1 construct: expressed in transfected cells; host or cells: CHO-K1 (ATCC), stably expressing hM4 and Gqi5
T1 sequence (P08173 1-479): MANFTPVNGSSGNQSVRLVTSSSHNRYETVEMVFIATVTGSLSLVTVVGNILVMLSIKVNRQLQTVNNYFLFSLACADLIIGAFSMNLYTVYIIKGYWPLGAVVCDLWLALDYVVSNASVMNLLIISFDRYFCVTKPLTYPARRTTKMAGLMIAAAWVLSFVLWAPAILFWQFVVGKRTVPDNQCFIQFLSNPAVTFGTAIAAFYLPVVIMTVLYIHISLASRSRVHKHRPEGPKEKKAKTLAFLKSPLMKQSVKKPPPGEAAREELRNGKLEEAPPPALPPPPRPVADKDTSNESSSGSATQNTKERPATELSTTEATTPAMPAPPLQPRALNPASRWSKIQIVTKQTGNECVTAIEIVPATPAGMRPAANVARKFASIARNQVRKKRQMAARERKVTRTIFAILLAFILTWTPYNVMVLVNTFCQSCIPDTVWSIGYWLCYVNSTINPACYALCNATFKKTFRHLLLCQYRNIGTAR
Test: mAChR M4 cell-based functional assay: calcium flux (Fluo-4, FDSS), positive allosteric modulator activity on the EC20 acetylcholine response, hM4-Gqi5 CHO-K1 cells
Settings: for Emax at 30 µM: CHO-K1, human M4, % ACh maximum at 30 μM; for EC50: human M4, PAM activity on EC20 acetylcholine response, calcium flux, read-out: Human M4 EC50
Protocol: Human M4 cDNA, along with the chimeric G protein Gqi5, were transfected into Chinese hamster ovary (CHO-K1) cells purchased from the American Type Culture Collection using commercially available Lipofectamine 2000 transfection reagent (Dalby, B. et al., Methods (2004) 33(2), 95-103). hM4-Gqi5 cells were grown in Ham's F-12 medium containing 10% heat-inactivated fetal bovine serum (FBS), 20 mM […], 50 μg/mL G418 sulfate (CAS #108321-42-2), and 500 μg/mL Hygromycin B. rM4-Gqi5 cells were grown in DMEM containing 10% heat-inactivated FBS, 20 mM HEPES, 400 μg/mL G418 sulfate, and 500 μg/mL Hygromycin B.
For high throughput measurement of agonist-evoked increases in intracellular calcium, CHO-K1 cells stably expressing muscarinic receptors were plated in growth medium lacking G418 sulfate and hygromycin at 15,000 cells/20 μL/well in Greiner 384-well black-walled, tissue culture (TC)-treated, clear-bottom plates (VWR). Cells were incubated overnight at 37° C. and 5% C02. The next day, cells were washed using an ELX 405 (BioTek) with assay buffer; the final volume was then aspirated to 20 μL. Next, 20 μL of a 2.3 μM stock of Fluo-4/acetoxymethyl ester (Invitrogen, Carlsbad, CA), prepared as a 2.3 mM stock in DMSO and mixed in a 1:1 ratio with 10% (w/v) Pluronic F-127 and diluted in assay buffer, was added to the wells and the cell plates were incubated for 50 minutes at 37° C. and 5% C02. Dye was removed by washing with the ELX 405 and the final volume was aspirated to 20 μL. Compound master plates were formatted in an 11 point concentration-response curve (CRC) format (1:3 dilutions) in 100% DMSO with a starting concentration of 10 mM using a BRAVO liquid handler (Agilent). Test compound CRCs were then transferred to daughter plates (240 nL) using the Echo acoustic plate reformatter (Labcyte, Sunnyvale, CA) and then diluted into assay buffer (40 μL) to a 2× stock using a Thermo Fisher Combi (Thermo Fisher Scientific, Waltham, MA).
Calcium flux was measured using the Functional Drug Screening System (FDSS) 6000 or 7000 (Hamamatsu Corporation, Tokyo, Japan) as an increase in the fluorescent static ratio. Compounds were applied to cells (20 μL, 2×) using the automated system of the FDSS at 2-4 seconds into the protocol and the data were collected at 1 Hz. At 144 seconds, 10 μL of an EC20 concentration of the muscarinic receptor agonist acetylcholine was added (5×), followed by the addition of 12 μL of an EC80 concentration of acetylcholine at the 230 second time point (5×). Agonist activity was analyzed as a concentration-dependent increase in calcium mobilization upon compound addition. Positive allosteric modulator activity was analyzed as a concentration-dependent increase in the EC20 acetylcholine response. With the acetylcholine EC20 set as baseline, the test compound EC50 is determined as the concentration that produces an increase above baseline of 50% of the maximum increase in acetylcholine response elicted by the test compound. Antagonist activity was analyzed as a concentration-dependent decrease in the ECso acetylcholine response. Concentration-response curves were generated using a four-parameter logistical equation in XLFit curve fitting software (IDBS, Bridgewater, NJ) for Excel (Microsoft, Redmond, WA) or Prism (GraphPad Software, Inc., San Diego, CA).
Compounds were synthesized as described above. Activity (EC50 and Emax) was determined in the mAChR M4 cell-based functional assay as described above and the data are shown in Table 4. The compound numbers correspond to the compound numbers used in Examples 1-33 and Tables 1, 2, and 3.

Row | Compound | Emax at 30 µM [%] | EC50 [nM]
1 | Cc1nc(N2CCc3ncc(-c4ccnn4C)cc3C2)c2cc(Cl)ccc2n1 [Compound 45, 6-chloro-2-methyl-4-[3-(2-methylpyrazol-3-yl)-7,8-dihydro-5H-1,6-naphthyridin-6-yl]quinazoline] | 98 | 60
2 | Cc1nc(N2CCc3ncc(-c4c(C)noc4C)cc3C2)c2cc(Cl)ccc2n1 [Compound 47, 4-[6-(6-chloro-2-methyl-quinazolin-4-yl)-7,8-dihydro-5H-1,6-naphthyridin-3-yl]-3,5-dimethyl-isoxazole] | 99 | 140
3 | Cc1nc(N2CCc3ncc(-c4cnc(C)s4)cc3C2)c2cc(Cl)ccc2n1 [Compound 48, 5-[6-(6-chloro-2-methyl-quinazolin-4-yl)-7,8-dihydro-5H-1,6-naphthyridin-3-yl]-2-methyl-thiazole] | 92 | 270
4 | Cc1ncc(-c2cnc3c(c2)CN(c2ncnc4cc(F)c(F)cc24)CC3)s1 [Compound 52, 5-[6-(6,7-difluoroquinazolin-4-yl)-7,8-dihydro-5H-1,6-naphthyridin-3-yl]-2-methyl-thiazole] | 87 | 80
5 | Fc1cc2ncnc(N3CCc4ncc(-c5cnn(C6CC6)c5)cc4C3)c2cc1F [Compound 54, 4-[3-(1-cyclopropylpyrazol-4-yl)-7,8-dihydro-5H-1,6-naphthyridin-6-yl]-6,7-difluoro-quinazoline] | 85 | 200
6 | Cc1ccc2nc(C)nc(N3CCc4ncc(-c5cnc(C)s5)cc4C3)c2c1 [Compound 55, 5-[6-(2,6-dimethylquinazolin-4-yl)-7,8-dihydro-5H-1,6-naphthyridin-3-yl]-2-methyl-thiazole] | 92 | 480
7 | Cc1nc(N2CCc3ncc(-c4cnc(C)s4)cc3C2)c2cc(C(F)(F)F)ccc2n1 [Compound 56, 2-methyl-5-[6-[2-methyl-6-(trifluoromethyl)quinazolin-4-yl]-7,8-dihydro-5H-1,6-naphthyridin-3-yl]thiazole] | 45 | 1930
8 | Cc1nc(N2CCc3ncc(-c4cn(C)nc4C)cc3C2)c2cc(C(F)(F)F)ccc2n1 [Compound 57, 4-[3-(1,3-dimethylpyrazol-4-yl)-7,8-dihydro-5H-1,6-naphthyridin-6-yl]-2-methyl-6-(trifluoromethyl)quinazoline] | 59 | 2890
9 | Cc1nc(N2CCc3ncc(-c4cnn(C5CC5)c4)cc3C2)c2cc(C(F)(F)F)ccc2n1 [Compound 59, 4-[3-(1-cyclopropylpyrazol-4-yl)-7,8-dihydro-5H-1,6-naphthyridin-6-yl]-2-methyl-6-(trifluoromethyl)quinazoline] | 58 | 1970
10 | COc1cc2c(N3CCc4ncc(-c5cn(C)nc5C)cc4C3)nc(Cl)nc2cc1F [Compound 60, 2-chloro-4-[3-(1,3-dimethylpyrazol-4-yl)-7,8-dihydro-5H-1,6-naphthyridin-6-yl]-7-fluoro-6-methoxy-quinazoline] | 52 | 510
11 | COc1cc2c(N3CCc4ncc(-c5cn(C)nc5C)cc4C3)nc(C)nc2cc1F [Compound 61, 4-[3-(1,3-dimethylpyrazol-4-yl)-7,8-dihydro-5H-1,6-naphthyridin-6-yl]-7-fluoro-6-methoxy-2-methyl-quinazoline] | 57 | 450
12 | Cn1cc(-c2cnc3c(c2)CN(c2nc(Cl)nc4cc(Cl)c(F)cc24)CC3)cn1 [Compound 62, 2,7-dichloro-6-fluoro-4-[3-(1-methylpyrazol-4-yl)-7,8-dihydro-5H-1,6-naphthyridin-6-yl]quinazoline] | 34 | 410
13 | Cc1ccc(-c2cnc3c(c2)CN(c2nc(Cl)nc4cc(Cl)c(F)cc24)CC3)cn1 [Compound 63, 2,7-dichloro-6-fluoro-4-[3-(6-methyl-3-pyridyl)-7,8-dihydro-5H-1,6-naphthyridin-6-yl]quinazoline] | 26 | 400
14 | Cc1cn(C)nc1-c1cnc2c(c1)CN(c1nc(C(F)(F)F)nc3ccc(F)cc13)CC2 [Compound 64, 4-[3-(1,4-dimethylpyrazol-3-yl)-7,8-dihydro-5H-1,6-naphthyridin-6-yl]-6-fluoro-2-(trifluoromethyl)quinazoline] | 69 | 510
15 | Fc1ccc2nc(C(F)(F)F)nc(N3CCc4ncc(-c5ccn(C6CC6)n5)cc4C3)c2c1 [Compound 65, 4-[3-(1-cyclopropylpyrazol-3-yl)-7,8-dihydro-5H-1,6-naphthyridin-6-yl]-6-fluoro-2-(trifluoromethyl)quinazoline] | 52 | 1380

Second part, the compound after the results:

Row | Emax at 30 µM [%] | EC50 [nM] | Compound
16 | 59 | 470 | FC(F)(F)c1ccc(-c2cnc3c(c2)CN(c2ncnc4ccc(Cl)cc24)CC3)cn1 [Compound 44, 6-chloro-4-[3-[6-(trifluoromethyl)-3-pyridyl]-7,8-dihydro-5H-1,6-naphthyridin-6-yl]quinazoline]
17 | 97 | 170 | Cc1nc(N2CCc3ncc(-c4cnn(C)c4)cc3C2)c2cc(Cl)ccc2n1 [Compound 46, 6-chloro-2-methyl-4-[3-(1-methylpyrazol-4-yl)-7,8-dihydro-5H-1,6-naphthyridin-6-yl]quinazoline]
18 | 81 | 1230 | Cc1nc(N2CCc3ncc(-c4ccc(N(C)C)nc4)cc3C2)c2cc(Cl)ccc2n1 [Compound 49, 5-[6-(6-chloro-2-methyl-quinazolin-4-yl)-7,8-dihydro-5H-1,6-naphthyridin-3-yl]-N,N-dimethyl-pyridin-2-amine]
19 | 83 | 1070 | Cc1nc(N2CCc3ncc(-c4ccc(C5CC5)nc4)cc3C2)c2cc(Cl)ccc2n1 [Compound 50, 6-chloro-4-[3-(6-cyclopropyl-3-pyridyl)-7,8-dihydro-5H-1,6-naphthyridin-6-yl]-2-methyl-quinazoline]
20 | 95 | 290 | Cc1ccc(-c2cnc3c(c2)CN(c2nc(C)nc4ccc(Cl)cc24)CC3)cn1 [Compound 51, 6-chloro-2-methyl-4-[3-(6-methyl-3-pyridyl)-7,8-dihydro-5H-1,6-naphthyridin-6-yl]quinazoline]
21 | 84 | 130 | Cc1ccc(-c2cnc3c(c2)CN(c2ncnc4cc(F)c(F)cc24)CC3)cn1 [Compound 53, 6,7-difluoro-4-[3-(6-methyl-3-pyridyl)-7,8-dihydro-5H-1,6-naphthyridin-6-yl]quinazoline]
22 | 45 | 1220 | Cc1ccc(-c2cnc3c(c2)CN(c2nc(C)nc4ccc(C(F)(F)F)cc24)CC3)cn1 [Compound 58, 2-methyl-4-[3-(6-methyl-3-pyridyl)-7,8-dihydro-5H-1,6-naphthyridin-6-yl]-6-(trifluoromethyl)quinazoline]
